Laboratory results reported in US20100331269A1, “TRITERPENES DERIVATIVES AND USES THEREOF AS ANTITUMOR AGENTS OR ANTI-INFLAMMATORY AGENTS” (priority 2006, published 2010).
Marks after values point to notes of the source that are not given here.

Tests used:
[1] = tested on: A-549 human lung carcinoma cells; assay: Cytotoxicity, resazurin metabolism assay, A-549; assay type: cell-based; conditions: 48 h, mean ± SD
Procedure, shortened: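 Cells plated at 5×10^3/well, adhered 16 h, then exposed to increasing compound concentrations (DMSO) for 48 h. Viability by resazurin reduction, fluorescence ex 530/em 590 nm, blank-subtracted versus control wells; IC50 as mean±SD from three experiments in triplicate.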

A-549 cells = assay: Cytotoxicity, Hoechst DNA assay, A-549; assay type: cell-based, human; conditions: ± SD
Procedure, shortened: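 Cells grown at 37 °C, 5% CO2, in MEM with 10% FBS. Compound cytotoxicity was measured by Hoechst DNA staining. Activity is expressed as IC50, the concentration inhibiting 50% of cell growth.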

[2] = tested on: PA-1 human ovary teratocarcinoma cells; assay: Cytotoxicity, resazurin metabolism assay, PA-1; assay type: cell-based; conditions: mean ± SD
Source text: Human lung carcinoma (A-549), human colon adenocarcinoma (DLD-1), human normal fibroblasts (WS1), mice melanoma (B16-F1), Human glioma (U-251), Human hepatocellular carcinoma (HEP G2), Human prostate adenocarcinoma (PC-3), Human ovary teratocarcinoma metastatic (PA-1), Human breast adenocarcinona metastatic (MDA-MB-231), Human breast adenocarcinoma (MCF-7) and Human malignant melanoma (SK-MEL-2) cell lines were obtained from the American Type Culture Collection (ATCC). All cell lines were cultured in minimum essential medium containing Earle's salts and L-glutamine (Mediatech Cellgro, Va.), to which was added 10% fetal bovine serum (Hyclone), vitamins (1×), penicillin (100 I.U./mL) and streptomycin (100 μg/mL), essential amino acids (1×) and sodium pyruvate (1×) (Mediatech Cellgro, Va.). Cells were kept at 37° C. in a humidified environment containing 5% CO2.
Exponentially growing cells were plated in 96-well microplates (Costar, Corning Inc.) at a density of 5×10^3 cells per well in 100 μL of culture medium and were allowed to adhere for 16 hours before treatment. Increasing concentrations of each compound in DMSO (Sigma-Aldrich) were then added (100 μL per well) and the cells were incubated for 48 h. […] Cytotoxicity was assessed using resazurin (O'Brien, J. et al., Eur. J. Biochem. 2000, 267, 5421-5426) on an automated 96-well Fluoroskan Ascent F1™ plate reader (Labsystems) using excitation and emission wavelengths of 530 nm and 590 nm, respectively. Fluorescence was proportional to the cellular metabolic activity in each well. Survival percentage was defined as the fluorescence in experimental wells compared to that in control wells after subtraction of blank values. Each experiment was carried out three times in triplicata. IC50 results were expressed as mean±standard deviation.
Compounds presented in Table 5 below were also tested in the following tumour cell lines: U-251 (Human glioma), HEP G2 (Human hepatocellular carcinoma), PC-3 (Human prostate adenocarcinoma), PA-1 (Human ovary teratocarcinoma metastatic), MDA-MB-231 (Human breast adenocarcinona metastatic), MCF-7 (Human breast adenocarcinoma) and SK-MEL-2 (Human malignant melanoma).

Lewis lung carcinoma = assay: In vivo antitumoral activity against Lewis lung cancer-bearing mice; design: species or system C57BL/6 mouse; conditions: day 13
Procedure: Cell lines and mice preparation: The Lewis lung carcinoma cell lines (#CRL-1642, lot # 4372266, ATCC) and the C57BL/6 mouse strain (Charles River Inc., St-Constant, Qc) were used. Cells were grown to 90% confluence in complete DMEM medium containing Earle's salts and L-glutamine (Mediatech Cellgro, Va.), 10% foetal bovine serum (Hyclone), vitamins (1×), penicillin (100 I.U./mL) and streptomycin (100 μg/mL), essential amino acids (1×) and sodium pyruvate (1×) (Mediatech Cellgro, Va.). Cells were then harvested with up and down only. Cells were counted using a hemacytometer and resuspended in DMEM medium without SVF. 100 μL of a solution containing 1×10^7 cells/mL was inoculated subcutaneously in the right flank of each 6 weeks old mouse on day zero.
The experimental mice were weighed daily.
Data analysis: In vivo antitumor activity was evaluated according to the parameters as follows (Miot-Noirault, E. et al. Invest. New Drugs 2004, 22, 369-378):
(a) Calculated tumour weight (CTW): The CTW of each tumour was estimated from two-dimensional measurements performed once a day with a slide calliper, according to the formula: CTW (mg)=(L×W^2)/2 with L=length in mm and W=width in mm. Differences in CTW between treated and control groups (DMSO) were analyzed for significance using the U Wilcoxon-Mann-Whitney test and Student t-test. Values of p<0.05 were considered statistically significant.
(b) Treated/Control value (T/C) and Tumour Growth Inhibition (TGI):The T/C was calculated as the ratio of the mean CTW of TW of drug-treated mice versus controls: T/C=(CTW of the drug-treated group on Day X/CTW of the control group on Day X)×100. TGI is 100−(T/C) value.

## C=C(C)[C@@H]1CC[C@]2(C(=O)O)CC[C@]3(C)[C@H](CC[C@@H]4[C@@]5(C)CC[C@H](O[C@@H]6O[C@@H](C)[C@H](O)[C@@H](O)[C@H]6O)C(C)(C)[C@@H]5CC[C@]43C)[C@@H]12 [Compound 22, 3-O-α-L-Rhamnopyranoside of betulinic acid]
[1]
  IC50: 2600 ± 600 nM
A-549 cells
  IC50: 2600 ± 300 nM
[2]
  IC50: 8000 ± 1000 nM
Lewis lung carcinoma; 50 mg/kg IP every 3-4 days
  CTW (calculated tumour weight): 297 ± 98 mg
Lewis lung carcinoma; 50 mg/kg IP
  T/C (Treated/Control): 91%
  TGI (Tumour Growth Inhibition): 9%
Lewis lung carcinoma; 100 mg/kg IP every 3-4 days
  CTW (calculated tumour weight): 178 ± 53^e mg
Lewis lung carcinoma; 100 mg/kg IP
  T/C (Treated/Control): 55%
  TGI (Tumour Growth Inhibition): 45%
Lewis lung carcinoma; 200 mg/kg IP every 3-4 days
  CTW (calculated tumour weight): 192 ± 50^e mg
Lewis lung carcinoma; 200 mg/kg IP
  T/C (Treated/Control): 59%
  TGI (Tumour Growth Inhibition): 41%
